Laboratory results reported in the supplement of paper PMC9763283.
Where “and” joins values, the source holds several entries; their conditions need not be identical. Identical values can stand only once.

How the values were obtained:
Experiment in all cases: area under growth-rate inhibition curve (AUC GRI) (dimensionless (GR-based AUC)); higher = less growth inhibition
Conditions in all cases: exposure time: 72 h; concentrations: 0.1, 1, 10 uM
BT474-LTR = test system: BT474-LTR
Procedure, shortened: (§1)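 The area under the growth-rate inhibition curve was measured in six breast cancer cell line models, covering triple-negative lines and HER2+ lines, both parental and resistant to a two-drug combination. Cells were exposed to compound at 0.1, 1 or 10 µM for 72 h, fixed in 4% paraformaldehyde, and nuclei were stained with Hoechst 33342 or DAPI for imaging and counting. Day 0 plates, untreated Day 3 plates and DMSO controls served to correct growth across 2 biological replicates.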

BT474-P = test system: BT474-P
Procedure, shortened: as §1

MDA-MB-231 = test system: MDA-MB-231
Procedure, shortened: as §1

MDA-MB-468 = test system: MDA-MB-468
Procedure, shortened: as §1

SKBR3-LTR = test system: SKBR3-LTR
Procedure, shortened: as §1

SKBR3-P = test system: SKBR3-P
Procedure, shortened: as §1

| SMILES | area under growth-rate inhibition curve (BT474-LTR) | area under growth-rate inhibition curve (BT474-P) | area under growth-rate inhibition curve (MDA-MB-231) | area under growth-rate inhibition curve (MDA-MB-468) | area under growth-rate inhibition curve (SKBR3-LTR) | area under growth-rate inhibition curve (SKBR3-P) |
| --- | --- | --- | --- | --- | --- | --- |
| CCC(=O)O[C@@H](OP(=O)(CCCCc1ccccc1)CC(=O)N1C[C@H](C2CCCCC2)C[C@H]1C(=O)[O-])C(C)C.[Na+] (stereo not given in full) [Fosinopril Sodium] | 1.13 | 1.06 | 1.03 | 1.02 | 1.04 | 1.01 |
| CCCCN1CCCCC1C(=O)[NH2+]c1c(C)cccc1C.[Cl-] (stereo not given) [Bupivacaine HCl] | 1.12 | 1.1 | 1.04 | 1.07 | 1.1 | 1.06 |
| C#C[C@]1(O)CC[C@H]2[C@@H]3CCC4=CC(=O)CC[C@@H]4[C@H]3C(=C)C[C@@]21CC [Etonogestrel] | 0.993 | 0.958 | 0.976 | 1.03 | 1.05 | 1 |
| CCC/N=C1\S/C(=C\c2ccc(OC[C@H](O)CO)c(Cl)c2)C(=O)N1c1ccccc1C [Ponesimod] | 1.04 | 0.996 | 1.01 | 1.04 | 1.02 | 0.989 |
| CC(C)NCC(O)COc1cccc2ccccc12.[Cl-].[H+] (stereo not given) [Propranolol HCl] | 1.1 | 1.11 | 1.04 | 1.03 | 1.06 | 1.01 |
| CN1C[C@H](C(=O)N[C@]2(C)O[C@@]3(O)[C@@H]4CCCN4C(=O)[C@H](Cc4ccccc4)N3C2=O)C[C@@H]2c3cccc4[nH]cc(c34)C[C@H]21.CS(=O)(=O)O [Dihydroergotamine mesylate] | 1.01 | 0.974 | 0.986 | 1.02 | 1.05 | 0.947 |
| CC(C)NCC(O)COc1ccc(CCOCC2CC2)cc1.[Cl-].[H+] (stereo not given) [Betaxolol] | 1.07 | 1.01 | 1.05 | 1.01 | 1.07 | 0.996 |
| Cc1ccccc1C(OCCN(C)C)c1ccccc1.O=C(O)CC(O)(CC(=O)O)C(=O)O (stereo not given) [Orphenadrine Citrate] | 1.06 | 1.03 | 1.02 | 1.04 | 1.07 | 0.995 |
| CC(C)C(=O)Oc1ccc(CO)cc1[C@H](CCN(C(C)C)C(C)C)c1ccccc1.O=C(O)/C=C/C(=O)O [Fesoterodine Fumarate] | 1 | 0.994 | 1.01 | 1.01 | 0.961 | 0.973 |
| O=C1Cc2cc(CCN3CCN(c4nsc5ccccc45)CC3)c(Cl)cc2N1.[Cl-].[H+] [Ziprasidone hydrochloride] | 1.06 | 0.993 | 1.03 | 1.03 | 1.05 | 1 |
| CC1=C(C(=O)OC2CCCCC2)C(c2ccc([N+](=O)[O-])cc2)C2=C(CC(C)(C)CC2=O)N1 (stereo not given) [FLI-06] | 1.01 | 0.895 | 0.878 | 0.915 | 0.928 | 0.915 |
| CC(=O)CCCCn1c(=O)c2c(ncn2C)n(C)c1=O [Pentoxifylline] | 1.03 | 1 | 1.04 | 1.04 | 1.05 | 1.02 |
| CNCC(=O)c1ccc(O)c(O)c1.Cl [Adrenalone HCl] | 1.1 | 1.04 | 0.964 | 1.02 | 1.07 | 1.03 |
| NC(N)=NCCCC(N)C(=O)NC(CCCN=C(N)N)C(=O)N1CCCC1C(=O)N1CC(O)CC1C(=O)NCC(=O)NC(Cc1cccs1)C(=O)NC(CO)C(=O)N1Cc2ccccc2CC1C(=O)N1C(C(=O)NC(CCCN=C(N)N)C(=O)O)CC2CCCCC21 (stereo not given) [HOE 140] | 1.06 | 1.03 | 1.01 | 1.02 | 1.04 | 1.04 |
| CN(C)CCOC(c1ccc(Cl)cc1)c1ccccn1 (stereo not given) [carbinoxamine] | 1.04 | 0.999 | 1.04 | 1.04 | 1.06 | 1.03 |
| O=C(c1ccc(F)cc1)N1CCC[C@H](c2nc(-c3ccc(F)cc3)no2)C1 | 1.07 | 1.02 | 1.01 | 1.04 | 1.11 | 1.01 |
| CN1CCN(C2=Nc3cc(Cl)ccc3Nc3ccccc32)CC1 [Clozapine] | 1.09 | 1.06 | 1.04 | 1.03 | 1.07 | 1.01 |
| OC(CNCC(O)C1CCc2cc(F)ccc2O1)C1CCc2cc(F)ccc2O1.[Cl-].[H+] (stereo not given) [Nebivolol] | 0.88 | 0.882 | 0.874 | 0.805 | 0.853 | 0.938 |
| C=CCC1(O)CCC2C3CCC4=CC(=O)CCC4=C3C=CC21C (stereo not given) [Altrenogest] | 1.01 | 0.953 | 1.03 | 1 | 1.08 | 1.04 |
| CN1CCC(=C2c3ccccc3CCc3cccnc32)CC1.O=C(O)C=CC(=O)O.O=C(O)C=CC(=O)O [Azatadine dimaleate] | 1.12 | 1.07 | 1.05 | 1.05 | 1.01 | 1.02 |
| CN1C2CCC1CC(OC(=O)C(CO)c1ccccc1)C2 (stereo not given) [Hyoscyamine] | 1.13 | 1.06 | 1.03 | 1.04 | 1.04 | 1.04 |
| CC(C)(c1ccc(OCC(O)CO)cc1)c1ccc(OCC(O)CCl)cc1 (stereo not drawn) [EPI-001] | 1.07 | 0.993 | 1.05 | 1.01 | 1.07 | 1.01 |
| CN(C)CC/C=C1\c2ccccc2COc2ccc(CC(=O)O)cc21.Cl [Olopatadine HCl] | 1.1 | 1.04 | 1.04 | 0.999 | 1.02 | 1.02 |
| CC(C)C(=O)OCC(=O)[C@@]12O[C@H](C3CCCCC3)O[C@@H]1C[C@H]1[C@@H]3CCC4=CC(=O)C=C[C@]4(C)[C@H]3[C@@H](O)C[C@@]12C [Ciclesonide] | 0.999 | 0.947 | 0.996 | 1.03 | 1.05 | 0.955 |
| Cl.Cl.OCCN1CCN(CCCN2c3ccccc3Sc3ccc(C(F)(F)F)cc32)CC1 [Fluphenazine dihydrochloride?] | 1.02 | 1.01 | 1.03 | 1.03 | 1.05 | 1.02 |

| SMILES | area under growth-rate inhibition curve (BT474-LTR) | area under growth-rate inhibition curve (BT474-P) | area under growth-rate inhibition curve (MDA-MB-231) | area under growth-rate inhibition curve (MDA-MB-468) | area under growth-rate inhibition curve (SKBR3-LTR) | area under growth-rate inhibition curve (SKBR3-P) |
| --- | --- | --- | --- | --- | --- | --- |
| CCCCCCCCc1ccc(CCC(N)(CO)CO)cc1.Cl [Fingolimod (FTY720) HCl] | 0.96 | 0.836 | 0.829 | 0.864 | 0.814 | 0.901 |
| CNCC[C@H](Oc1cccc2ccccc12)c1cccs1.[Cl-].[H+] [Duloxetine HCl] | 0.98 | 0.892 | 1 | 0.88 | 1.02 | 0.964 |
| CS(=O)(=O)[O-].C[NH+]1[C@@H]2CC[C@H]1C[C@@H](OC(c1ccccc1)c1ccccc1)C2 [Benztropine mesylate] | 1.08 | 1.03 | 1.03 | 0.994 | 1.01 | 0.986 |
| O=C(O)C=CC(=O)O.O=C(c1ccc(OCCCc2c[nH]cn2)cc1)C1CC1 [Ciproxifan] | 1.06 | 0.976 | 1.02 | 0.991 | 1.07 | 1.01 |
| CN1CCN(C(=O)c2cc3cc(Cl)ccc3[nH]2)CC1 | 1.06 | 1.02 | 1.04 | 1.04 | 1.05 | 0.993 |
| Br.CN1C2CC(OC(=O)C(CO)c3ccccc3)CC1C1OC12 (stereo not given) [Scopolamine HBr] | 1.08 | 1.05 | 1.03 | 1.04 | 1.09 | 1.01 |
| Br.COc1ccc2c(c1)[C@@]13CCCCC1C(C2)N(C)CC3 (stereo not given in full) [Dextromethorphan hydrobromide] | 1.04 | 1.01 | 1.04 | 1.03 | 1.06 | 1.02 |
| Cc1cccc(Cc2cnc[nH]2)c1C.Cl [Detomidine HCl] | 1.04 | 1.01 | 1.03 | 1.02 | 1.08 | 0.991 |
| CCc1c(C)[nH]c2c1C(=O)C(CN1CCOCC1)CC2 (stereo not given) [molindone] | 1.04 | 1.01 | 1.05 | 1.06 | 1.05 | 1.03 |
| CCCN(CCC)CCc1cccc2c1CC(=O)N2 [Ropinirole] | 1.05 | 0.994 | 1.03 | 1.06 | 1.05 | 1.02 |
| NCCCCC1NC(=O)C(Cc2c[nH]c3ccccc23)NC(=O)C(c2ccccc2)NC(=O)C2CC(OC(=O)NCCN)CN2C(=O)C(Cc2ccccc2)NC(=O)C(Cc2ccc(OCc3ccccc3)cc2)NC1=O (stereo not given) [Pasireotide] | 1.04 | 1.02 | 1.03 | 1.03 | 1.05 | 1.03 |
| CC(c1cc2ccccc2s1)N(O)C(N)=O (stereo not given) [Zileuton] | 1.07 | 1.04 | 1.04 | 1.05 | 1.05 | 1.04 |
| CC(=O)O[C@]1(C(C)=O)CC[C@H]2[C@@H]3C=C(C)C4=CC(=O)CC[C@]4(C)[C@H]3CC[C@@]21C [Megestrol Acetate] | 1.09 | 0.978 | 1 | 1.01 | 1.09 | 0.968 |
| CCc1cc(C(C)=NOCc2ccc(C3CCCCC3)c(C(F)(F)F)c2)ccc1CN1CC(C(=O)O)C1 [BAF312 (Siponimod)] | 0.989 | 1.01 | 1.01 | 0.961 | 0.968 | 0.99 |
| O=C1CCCC2C3CCCN4CCCC(CN12)C34 (single isomer, unassigned; (+)) [(+)-Matrine] | 1.08 | 1.06 | 1.03 | 1.01 | 1.09 | 1.02 |
| CNC(=NCCSCc1nc[nH]c1C)NC#N [Cimetidine] | 1.05 and 1.12 | 1.02 and 1.06 | 1.04 and 1.05 | 1.04 and 1.03 | 1.05 and 1.06 | 1.02 |
| NC(N)=Nc1nc(CSCCC(N)=NS(N)(=O)=O)cs1 [Famotidine] | 1.09 | 1.02 | 1.02 | 1.05 | 1.08 | 1.03 |
| CCN(CC)CC(=O)Nc1c(C)cccc1C [Lidocaine] | 1.11 | 1.04 | 1.03 | 1.05 | 1.08 | 1.03 |
| CCCc1c2oc(C(=O)O)cc(=O)c2cc2c(=O)cc(C(=O)O)n(CC)c12 [Nedocromil] | 1.04 | 1.02 | 1.03 | 1.05 | 1.05 | 1.02 |
| CC/C(=C(\c1ccccc1)c1ccc(OCCN(C)C)cc1)c1ccccc1.O=C(O)CC(O)(CC(=O)O)C(=O)O [Tamoxifen Citrate] | 0.896 | 0.851 | 0.958 | 0.952 | 0.982 | 0.938 |
| O=C1CC2(CCCC2)CC(=O)N1CCCCN1CCN(c2ncccn2)CC1.[Cl-].[H+] [Buspirone hydrochloride] | 1.02 | 1.01 | 1 | 1.01 | 1.03 | 1.01 |
| Cc1nn(-c2ccccc2)c(C)c1C=NN1CCN(Cc2ccccc2)CC1 [SANT-1] | 1.08 | 0.98 | 0.992 | 1.02 | 1.05 | 1.04 |
| O=C(CCCN1CC=C(n2c(=O)[nH]c3ccccc32)CC1)c1ccc(F)cc1 [Droperidol] | 1.04 | 1.03 | 1.02 | 0.992 | 1.07 | 1.02 |
| O=C(OC1C[N+]2(CCCOc3ccccc3)CCC1CC2)C(O)(c1cccs1)c1cccs1.[Br-] (stereo not given) [Aclidinium Bromide] | 0.997 | 1.01 | 1.03 | 1.03 | 1.02 | 0.988 |
| COc1ccc(C(Cl)=C(c2ccc(OC)cc2)c2ccc(OC)cc2)cc1 [Chlorotrianisene] | 1.08 | 0.983 | 1.01 | 1 | 1.05 | 0.987 |
